Results taken from patent publication US8993566B2, “Quinoline compound composing 1,2,4-triazine-dione and use thereof” (Wuhan Shengyun Biopharma Co., Ltd., priority 2012, dated 2015).
Values after ≈ are worked out from the molar mass of the structure shown. Like-named read-outs stand apart in the source and are kept apart here.

How the values were obtained:
[1] = test system: human nonsmall-cell lung cancer cell H460; experiment: In vitro anti-tumor cell activity (MTT), H460; format: cell-based; conditions: for IC50: Homo sapiens, read-out: H460 IC50
Description: (§1) The digested cell solution was poured into a centrifuge tube, to which a culture media was added to stop the digestion. The centrifuge tube was centrifuged at 800 r/min for 10 min, the supernatant was removed gently and then 5 mL of the culture media was added. The cells were pipetted and mixed homogeneously. 10 μL cell suspension was taken into a cell counting plate for counting, wherein the cell concentration was adjusted to 10^4 cells/well. To each well of a 96-well plate, except for A1 well as blank control, was added 100 μL of the cell suspension. The 96-well plate was placed in an incubator and cultivated for 24 h. […] The 96-well plate was placed in an incubator and cultivated for 72 h. (3) The culture media containing the compounds in the 96-well plate was removed, and the cells were washed with phosphate buffered solution (PBS) twice. To each well was added 100 μL MTT (tetrazole) (0.5 mg/mL), after placing the plate in an incubator to incubate for 4 h, the MTT solution was removed and 100 μL dimethyl sulfoxide was added. The reaction product of survival cells with MTT, i.e. formazan, was dissolved completely by oscillation on a magnetic oscillator, and then placed into a microplate reader to measure the results, and the IC50 values of compounds could be deduced by Bliss method.

[2] = test system: human colon cancer cell HT-29; experiment: In vitro anti-tumor cell activity (MTT), HT-29; format: cell-based; conditions: for IC50: Homo sapiens, read-out: HT-29 IC50
Description: as §1

[3] = test system: human gastric cancer cell MKN-45; experiment: In vitro anti-tumor cell activity (MTT), MKN-45; format: cell-based; conditions: for IC50: Homo sapiens, read-out: MKN-45 IC50
Description: as §1

[4] = test system: human hepatoma carcinoma cell line SMMC-7721; experiment: In vitro anti-tumor cell activity (MTT), SMMC-7721; format: cell-based; conditions: for IC50: Homo sapiens, read-out: SMMC-7721 IC50
Description: as §1

[5] = molecular target: T1, c-Met kinase (His-tagged recombinant human Met (amino acids 974-end)) (Homo sapiens, UniProt P08581); experiment: c-Met Enzyme Activity Inhibition Assay (ELISA); format: biochemical; conditions: 50 pM c-Met, 5 μM ATP, room temperature 20 min; for IC50: read-out: IC50 for inhibiting c-Met kinase (converted)
T1 construct: His-tagged recombinant human Met (amino acids 974-end); His
Description: c-Met Enzyme Activity Inhibition Assay
The assay for the determination of c-Met kinase activity is based on an enzyme linked immunosorbant assay (ELISA). A compound of Formula I, 50 pM c-Met (His-tagged recombinant human Met (amino acids 974-end), expressed by baculovirus), and 5 μM ATP in an assay buffer (25 mM MOPS, pH 7.4, 5 mM MgCl2, […], 100 μM sodium orthovanadate, 0.01% Triton X-100, 1 mM DTT, final DMSO concentration 1% (v/v)) were incubated on a plate coated with 0.25 mg/mL POT at room temperature for 20 min. The reaction mixture was removed by washing and the phosphorylated polymer substrate was detected with 0.2 μg/mL phosphotyrosine specific monoclonal antibody (PY20) conjugated to horseradish peroxidase (HRP). After the addition of 1M phosphoric acid to stop the development, the chromogenic substrate (TMB) color was quantitated by spectrophotometry at 450 nm.

[6] = NCI-H460, H460 cells, MTT, 72 h, Bliss method
[7] = HT-29 cells, MTT, 72 h, Bliss method
[8] = MKN-45 cells, MTT, 72 h, Bliss method
[9] = SMMC-7721 cells, MTT, 72 h, Bliss method
[10] = H460 cells, MTT, 72 h, Bliss method

T1 sequence (P08581 956-1390): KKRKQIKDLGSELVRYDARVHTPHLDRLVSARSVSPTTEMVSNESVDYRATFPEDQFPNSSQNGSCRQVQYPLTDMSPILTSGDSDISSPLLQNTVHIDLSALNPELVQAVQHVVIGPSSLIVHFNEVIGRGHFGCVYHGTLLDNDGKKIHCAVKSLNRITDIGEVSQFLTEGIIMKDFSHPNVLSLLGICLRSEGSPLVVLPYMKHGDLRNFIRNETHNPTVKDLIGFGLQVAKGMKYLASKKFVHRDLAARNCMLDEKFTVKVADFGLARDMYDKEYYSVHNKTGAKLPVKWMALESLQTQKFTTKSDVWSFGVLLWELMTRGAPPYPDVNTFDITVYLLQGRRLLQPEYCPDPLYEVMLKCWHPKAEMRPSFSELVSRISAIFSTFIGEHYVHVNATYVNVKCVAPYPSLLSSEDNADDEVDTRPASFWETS

| Compound | IC50 [1, 6] | IC50 [2, 7] | IC50 [3, 8] | IC50 [4, 9] | IC50 [5] | H460 IC50 [1, 10] | HT-29 IC50 [2, 7] | MKN-45 IC50 [3, 8] | SMMC-7721 IC50 [4, 9] | IC50 for inhibiting c-Met kinase [5] | IC50 ([1]; NCI-H460, 72 h) | IC50 ([2]; HT-29, 72 h) | IC50 ([3]; MKN-45, 72 h) | IC50 ([4]; SMMC-7721, 72 h) |
| --- | --- | --- | --- | --- | --- | --- | --- | --- | --- | --- | --- | --- | --- | --- |
| COc1cc2c(Oc3ccc(NC(=O)c4nn(-c5ccc(F)cc5)c(=O)n(C)c4=O)cc3F)ccnc2cc1OCCCN1CCOCC1 [Example 8, N-[3-fluoro-4-[6-methoxy-7-[3-(4-morpholinyl)propyloxy]quinolin-4-oxy]phenyl]-2-(4-fluorophenyl)-4-methyl-3,5-dioxo-2,3,4,5-tetrahydro-1,2,4-triazine-6-carboxamide] | 0.33 µg/mL (≈ 0.489 µM) | 0.28 µg/mL (≈ 0.415 µM) | 0.077 µg/mL (≈ 0.114 µM) | 0.42 µg/mL (≈ 0.623 µM) | 623 nM | – | – | – | – | – | – | – | – | – |
| N-[3-fluoro-4-[7-methoxy-6-[3-(1-pyrrolidyl)propyloxy]quinolin-4-oxy]phenyl]-2-(3-fluorophenyl)-4-butyl-3,5-dioxo-2,3,4,5-tetrahydro-1,2,4-triazine-6-carboxamide [Example 30] | – | – | – | – | – | 0.18 µg/mL | 0.11 µg/mL | 0.043 µg/mL | 0.46 µg/mL | 0.058 µg/mL | – | – | – | – |
| COc1cc2c(Oc3ccc(NC(=O)c4nn(-c5ccc(F)cc5)c(=O)n(C)c4=O)cc3F)ccnc2cc1OCCCN1CCC(C)CC1 [Example 9, N-[3-fluoro-4-[6-methoxy-7-[3-(4-methyl-1-piperidinyl)propyloxy]quinolin-4-oxy]phenyl]-2-(4-fluorophenyl)-4-methyl-3,5-dioxo-2,3,4,5-tetrahydro-1,2,4-triazine-6-carboxamide] | 0.17 µg/mL (≈ 0.248 µM) | 0.21 µg/mL (≈ 0.306 µM) | 0.065 µg/mL (≈ 0.0947 µM) | 0.09 µg/mL (≈ 0.131 µM) | 233 nM | – | – | – | – | – | – | – | – | – |
| C=CCn1c(=O)c(C(=O)Nc2ccc(Oc3ccnc4cc(OCCCN5CCOCC5)c(OC)cc34)c(F)c2)nn(-c2ccc(Br)cc2)c1=O [Example 39] | – | – | – | – | – | 1.4 µg/mL | 0.83 µg/mL | 0.19 µg/mL | 2.1 µg/mL | 1.8 µg/mL | – | – | – | – |
| N-[3-fluoro-4-[6-methoxy-7-[3-(4-methyl-1-piperazinyl)propyloxy]quinolin]-4-oxy]phenyl]-2-(3,4-difluorophenyl)-4-benzyl]-3,5-dicarbonyl-2,3,4,5-tetrahydro-1,2,4-triazine-6-carboxamide [Example 45] | – | – | – | – | – | 0.34 µg/mL | 0.28 µg/mL | 0.05 µg/mL | 1.1 µg/mL | 2.72 µg/mL | – | – | – | – |
| N-[3-fluoro-4-[7-methoxy-6-[3-(4-methyl-1-piperidinyl)propyloxy]quinolin-4-oxy]phenyl]-2-phenyl-4-butyl-3,5-dioxo-2,3,4,5-tetrahydro-1,2,4-triazine-6-carboxamide [Example 28] | – | – | – | – | – | 0.25 µg/mL | 0.31 µg/mL | 0.077 µg/mL | 0.44 µg/mL | 0.31 µg/mL | – | – | – | – |
| N-[3-fluoro-4-[6-methoxy-7-[3-(1-piperidinyl)propyloxy]quinolin]-4-oxy]phenyl]-2-(2-fluorophenyl)-4-allyl-3,5-dicarbonyl-2,3,4,5-tetrahydro-1,2,4-triazine-6-carboxamide [Example 40] | – | – | – | – | – | 1.0 µg/mL | 0.26 µg/mL | 0.05 µg/mL | 3.1 µg/mL | 5.1 µg/mL | – | – | – | – |
| COc1cc2c(Oc3ccc(NC(=O)c4nn(-c5ccc(F)c(F)c5)c(=O)n(C)c4=O)cc3F)ccnc2cc1OCCCN1CCCC1 [Example 16, N-[3-fluoro-4-[6-methoxy-7-[3-(1-pyrrolidyl)propyloxy]quinolin-4-oxy]phenyl]-2-(3,4-difluorophenyl)-4-methyl-3,5-dioxo-2,3,4,5-tetrahydro-1,2,4-triazine-6-carboxamide] | 0.22 µg/mL (≈ 0.325 µM) | 0.3 µg/mL (≈ 0.443 µM) | 0.027 µg/mL (≈ 0.0399 µM) | 0.34 µg/mL (≈ 0.502 µM) | 783 nM | – | – | – | – | – | – | – | – | – |
| COc1cc2c(Oc3ccc(NC(=O)c4nn(-c5ccc(F)c(F)c5)c(=O)n(C)c4=O)cc3F)ccnc2cc1OCCCN1CCN(C)CC1 [Example 20, N-[3-fluoro-4-[6-methoxy-7-[3-(4-methyl-1-piperazinyl)propyloxy]quinolin-4-oxy]phenyl]-2-(3,4-difluorophenyl)-4-methyl-3,5-dioxo-2,3,4,5-tetrahydro-1,2,4-triazine-6-carboxamide] | 0.28 µg/mL (≈ 0.397 µM) | 0.14 µg/mL (≈ 0.198 µM) | 0.009 µg/mL (≈ 0.0128 µM) | 0.11 µg/mL (≈ 0.156 µM) | 241 nM | – | – | – | – | – | – | – | – | – |
| N-[3-fluoro-4-[6-methoxy-7-[3-(4-morpholinyl)propyloxy]quinolin-4-oxy]phenyl]-2-(2-fluorophenyl)-4-methyl-3,5-dicarbonyl-2,3,4,5-tetrahydro-1,2,4-triazine-6-carboxamide [Example 23] | – | – | – | – | – | 0.57 µg/mL | 0.35 µg/mL | 0.0028 µg/mL | 0.44 µg/mL | 0.82 µg/mL | – | – | – | – |
| COc1cc2c(Oc3ccc(NC(=O)c4nn(-c5ccccc5)c(=O)n(C)c4=O)cc3F)ccnc2cc1OCCCN1CCCC1 [Example 1, N-[3-fluoro-4-[6-methoxy-7-[3-(tetrahydropyrrol-1-yl)propyloxy]quinolin-4-oxy]phenyl]-2-phenyl-4-methyl-3,5-dioxo-2,3,4,5-tetrahydro-1,2,4-triazine-6-carboxamide] | – | – | – | – | 71.8 nM | – | – | – | – | – | 0.26 µg/mL (≈ 0.406 µM) | 0.12 µg/mL (≈ 0.187 µM) | 0.042 µg/mL (≈ 0.0656 µM) | 0.18 µg/mL (≈ 0.281 µM) |
| N-[3-fluoro-4-[7-methoxy-6-[3-(4-methyl-1-piperidinyl)propyloxy]quinolin-4-oxy]phenyl]-2-(2-trifluoromethylphenyl)-4-butyl-3,5-dicarbonyl-2,3,4,5-tetrahydro-1,2,4-triazine-6-carboxamide [Example 33] | – | – | – | – | – | 0.15 µg/mL | 0.18 µg/mL | 0.09 µg/mL | 0.43 µg/mL | 0.27 µg/mL | – | – | – | – |
| COc1cc2c(Oc3ccc(NC(=O)c4nn(-c5ccc(F)c(F)c5)c(=O)n(C)c4=O)cc3F)ccnc2cc1OCCCN1CCOCC1 [Example 18, N-[3-fluoro-4-[6-methoxy-7-[3-(4-morpholinyl)propyloxy]quinolin-9-oxy]phenyl]-2-(3,4-difluorophenyl)-4-methyl-3,5-dioxo-2,3,4,5-tetrahydro-1,2,4-triazine-6-carboxamide] | – | – | – | – | – | 0.57 µg/mL | 0.3 µg/mL | 0.0008 µg/mL | 0.45 µg/mL | 0.32 µg/mL | – | – | – | – |
| N-[3-fluoro-4-[6-methoxy-7-[3-(1-piperidinyl)propyloxy]quinolin-4-oxy]phenyl]-2-phenyl-4-methyl-3,5-dioxo-2,3,4,5-tetrahydro-1,2,4-triazine-6-carboxamide [Example 2] | – | – | – | – | – | 0.072 µg/mL | 0.18 µg/mL | 0.032 µg/mL | 0.20 µg/mL | 0.12 µg/mL | – | – | – | – |
| COc1cc2c(Oc3ccc(NC(=O)c4nn(-c5ccc(F)cc5)c(=O)n(C)c4=O)cc3F)ccnc2cc1OCCCN1CCCC1 [Example 6, N-[3-fluoro-4-[6-methoxy-7-[3-(1-pyrrolidyl]propyloxy]quinolin-4-oxy]phenyl]-2-(4-fluorophenyl)-4-methyl-3,5-dioxo-2,3,4,5-tetrahydro-1,2,4-triazine-6-carboxamide] | 0.032 µg/mL (≈ 0.0486 µM) | 0.06 µg/mL (≈ 0.0911 µM) | 0.021 µg/mL (≈ 0.0319 µM) | 0.11 µg/mL (≈ 0.167 µM) | 48.6 nM | – | – | – | – | – | – | – | – | – |
